According to US6355799B1, “Substituted benzene compounds, process for their preparation, and herbicidal and defoliant compositions containing them” (ISK Americas Incorporated, priority 1997, dated 2002):

Columns and labels:
Format in all cases: in vivo
[1] = test system: redroot pigweed (Amaranthus retroflexus, AMARE); test: Pre-emerge test, greenhouse herbicide activity screening; settings: pre-emerge, rated 14 days after application, 0 = no damage, 100 = complete death
Method in brief: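 Plants grown in 10 cm pots of sandy loam mix received acetone-dissolved compounds through a moving flat-fan nozzle. Doses ranged from 15 to 1000 g ai/ha. Pre-emerge pots were seeded one day earlier, post-emerge pots 8–21 days earlier. Fourteen days on, each pot was graded 0–100 for damage.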

[2] = test system: johnsongrass (Sorghum halepense, SORHA); test: as above; settings: pre-emerge, rated 14 days after application, 0 = no damage, 100 = complete death
Method in brief: (§1)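 Compounds in acetone were track-sprayed at 15–1000 g ai/ha: pre-emergence onto soil sown the previous day, then top-watered to incorporate and later bottom-watered; post-emergence onto 2–3 leaf plants with 0.25% v/v surfactant, bottom-watered only. Ratings on a 0–100 phytotoxicity scale were taken at day 14.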

[3] = test system: velvetleaf (Abutilon theophrasti, ABUTH); test: as above; settings: pre-emerge, rated 14 days after application, 0 = no damage, 100 = complete death
Method in brief: as §1

[4] = test system: lambsquarters (Chenopodium album, CHEAL); test: as above; settings: pre-emerge, rated 14 days after application, 0 = no damage, 100 = complete death
Method in brief: as §1

[5] = test system: ivyleaf morningglory (Ipomoea hederacea, IPOHE); test: as above; settings: pre-emerge, rated 14 days after application, 0 = no damage, 100 = complete death
Method in brief: as §1

[6] = test system: green foxtail (Setaria viridis, SETVI); test: as above; settings: pre-emerge, rated 14 days after application, 0 = no damage, 100 = complete death
Method in brief: as §1

[7] = test system: barnyardgrass (Echinochloa crus-galli, ECHCG); test: as above; settings: pre-emerge, rated 14 days after application, 0 = no damage, 100 = complete death
Method in brief: as §1

[8] = test system: large crabgrass (Digitaria sanguinalis, DIGSA); test: as above; settings: pre-emerge, rated 14 days after application, 0 = no damage, 100 = complete death
Method in brief: as §1

[9] = test system: sicklepod (Cassia obtusifolia, CASOB); test: as above; settings: pre-emerge, rated 14 days after application, 0 = no damage, 100 = complete death
Method in brief: as §1

[10] = test system: upland rice (Oryza sp., var. Tebonnet, RICE); test: Pre-emerge test, crop safety; settings: pre-emerge, rated 14 days after application, 0 = no damage, 100 = complete death
Method in brief: (§2)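 Rating: 0–100 visual injury, 14 DAA. Application: acetone, 187 l/ha, 15–1000 g ai/ha, flat-fan track sprayer with nozzle 40–45 cm above soil or canopy. Post-emerge runs used 0.25% v/v surfactant on 2–3 leaf plants.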

[11] = test system: field corn (Zea mays L., var. Dekalb 535, CORN); test: Pre-emerge test, crop safety; settings: pre-emerge, rated 14 days after application, 0 = no damage, 100 = complete death
Method in brief: as §2

[12] = test system: upland rice (Oryza sp., var. Tebonnet, RICE); test: Post-emerge test, crop safety; settings: phytotoxicity rating 0-100 (0 no damage, 100 complete death), 14 days after application
Method in brief: as §2

[13] = test system: field corn (Zea mays L., var. Dekalb 535, CORN); test: Post-emerge test, crop safety; settings: phytotoxicity rating 0-100 (0 no damage, 100 complete death), 14 days after application
Method in brief: as §2

[14] = test system: johnsongrass (Sorghum halepense, SORHA); test: Post-emerge test, greenhouse herbicide activity screening; settings: phytotoxicity rating 0-100 (0 no damage, 100 complete death), 14 days after application
Method in brief: (§3)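 Fourteen days after spraying, crop and weed injury was graded visually from 0, no effect, to 100, every plant dead. Test substances were dissolved in acetone and applied at 15–1000 g ai/ha with a flat-fan nozzle. Application was either pre-emergence, one day after sowing, or post-emergence at the 2–3 leaf stage.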

[15] = test system: velvetleaf (Abutilon theophrasti, ABUTH); test: as above; settings: phytotoxicity rating 0-100 (0 no damage, 100 complete death), 14 days after application
Method in brief: as §3

[16] = test system: lambsquarters (Chenopodium album, CHEAL); test: as above; settings: phytotoxicity rating 0-100 (0 no damage, 100 complete death), 14 days after application
Method in brief: as §3

[17] = test system: ivyleaf morningglory (Ipomoea hederacea, IPOHE); test: as above; settings: phytotoxicity rating 0-100 (0 no damage, 100 complete death), 14 days after application
Method in brief: as §3

[18] = test system: green foxtail (Setaria viridis, SETVI); test: as above; settings: phytotoxicity rating 0-100 (0 no damage, 100 complete death), 14 days after application
Method in brief: as §3

[19] = test system: redroot pigweed (Amaranthus retroflexus, AMARE); test: as above; settings: phytotoxicity rating 0-100 (0 no damage, 100 complete death), 14 days after application
Method in brief: as §3

[20] = test system: barnyardgrass (Echinochloa crus-galli, ECHCG); test: as above; settings: phytotoxicity rating 0-100 (0 no damage, 100 complete death), 14 days after application
Method in brief: as §3

[21] = test system: large crabgrass (Digitaria sanguinalis, DIGSA); test: as above; settings: phytotoxicity rating 0-100 (0 no damage, 100 complete death), 14 days after application
Method in brief: as §3

[22] = test system: sicklepod (Cassia obtusifolia, CASOB); test: as above; settings: phytotoxicity rating 0-100 (0 no damage, 100 complete death), 14 days after application
Method in brief: as §3

SMILES: COc1c(Cl)cc(F)c(-n2c(=O)cc(C(F)(F)F)n(C)c2=O)c1NC(=O)C(C)(C)C [2-3]
- Pre-emerge Herbicidal Activity AMARE (phytotoxicity rating, scale 0-100) ([1]; 63 g ai/ha): 100
- Pre-emerge Herbicidal Activity AMARE (phytotoxicity rating, scale 0-100) ([1]; 250 g ai/ha): 100
- Pre-emerge Herbicidal Activity SORHA (phytotoxicity rating, scale 0-100) ([2]; 63 g ai/ha): 10
- Pre-emerge Herbicidal Activity SORHA (phytotoxicity rating, scale 0-100) ([2]; 250 g ai/ha): 30
- Pre-emerge Herbicidal Activity ABUTH (phytotoxicity rating, scale 0-100) ([3]; 63 g ai/ha): 100
- Pre-emerge Herbicidal Activity ABUTH (phytotoxicity rating, scale 0-100) ([3]; 250 g ai/ha): 100
- Pre-emerge Herbicidal Activity CHEAL (phytotoxicity rating, scale 0-100) ([4]; 63 g ai/ha): 100
- Pre-emerge Herbicidal Activity CHEAL (phytotoxicity rating, scale 0-100) ([4]; 250 g ai/ha): 100
- Pre-emerge Herbicidal Activity IPOHE (phytotoxicity rating, scale 0-100) ([5]; 63 g ai/ha): 60
- Pre-emerge Herbicidal Activity IPOHE (phytotoxicity rating, scale 0-100) ([5]; 250 g ai/ha): 100
- Pre-emerge Herbicidal Activity SETVI (phytotoxicity rating, scale 0-100) ([6]; 63 g ai/ha): 90
- Pre-emerge Herbicidal Activity SETVI (phytotoxicity rating, scale 0-100) ([6]; 250 g ai/ha): 100
- Pre-emerge Herbicidal Activity ECHCG (phytotoxicity rating, scale 0-100) ([7]; 63 g ai/ha): 0
- Pre-emerge Herbicidal Activity ECHCG (phytotoxicity rating, scale 0-100) ([7]; 250 g ai/ha): 40
- Pre-emerge Herbicidal Activity DIGSA (phytotoxicity rating, scale 0-100) ([8]; 63 g ai/ha): 30
- Pre-emerge Herbicidal Activity DIGSA (phytotoxicity rating, scale 0-100) ([8]; 250 g ai/ha): 60
- Pre-emerge Herbicidal Activity CASOB (phytotoxicity rating, scale 0-100) ([9]; 63 g ai/ha): 60
- Pre-emerge Herbicidal Activity CASOB (phytotoxicity rating, scale 0-100) ([9]; 250 g ai/ha): 100
- Pre-emerge crop damage RICE (phytotoxicity rating, scale 0-100) ([10]; 63 g ai/ha): 20
- Pre-emerge crop damage RICE (phytotoxicity rating, scale 0-100) ([10]; 250 g ai/ha): 50
- Pre-emerge crop damage CORN (phytotoxicity rating, scale 0-100) ([11]; 63 g ai/ha): 0
- Pre-emerge crop damage CORN (phytotoxicity rating, scale 0-100) ([11]; 250 g ai/ha): 30
- Post-emerge Herbicidal Activity RICE (crop damage) ([12]; 63 g ai/ha): 0
- Post-emerge Herbicidal Activity RICE (crop damage) ([12]; 250 g ai/ha): 40
- Post-emerge Herbicidal Activity CORN (crop damage) ([13]; 63 g ai/ha): 0
- Post-emerge Herbicidal Activity CORN (crop damage) ([13]; 250 g ai/ha): 10
- Post-emerge Herbicidal Activity SORHA ([14]; 63 g ai/ha): 0
- Post-emerge Herbicidal Activity SORHA ([14]; 250 g ai/ha): 0
- Post-emerge Herbicidal Activity ABUTH ([15]; 63 g ai/ha): 80
- Post-emerge Herbicidal Activity ABUTH ([15]; 250 g ai/ha): 100
- Post-emerge Herbicidal Activity CHEAL ([16]; 63 g ai/ha): 30
- Post-emerge Herbicidal Activity CHEAL ([16]; 250 g ai/ha): 30
- Post-emerge Herbicidal Activity IPOHE ([17]; 63 g ai/ha): 60
- Post-emerge Herbicidal Activity IPOHE ([17]; 250 g ai/ha): 100
- Post-emerge Herbicidal Activity SETVI ([18]; 63 g ai/ha): 0
- Post-emerge Herbicidal Activity SETVI ([18]; 250 g ai/ha): 0
- Post-emerge Herbicidal Activity AMARE ([19]; 63 g ai/ha): 10
- Post-emerge Herbicidal Activity AMARE ([19]; 250 g ai/ha): 40
- Post-emerge Herbicidal Activity ECHCG ([20]; 63 g ai/ha): 0
- Post-emerge Herbicidal Activity ECHCG ([20]; 250 g ai/ha): 0
- Post-emerge Herbicidal Activity DIGSA ([21]; 63 g ai/ha): 0
- Post-emerge Herbicidal Activity DIGSA ([21]; 250 g ai/ha): 0
- Post-emerge Herbicidal Activity CASOB ([22]; 63 g ai/ha): 0
- Post-emerge Herbicidal Activity CASOB ([22]; 250 g ai/ha): 0
